According to patent publication US6872541B2, “Method and compositions for analysis of pentraxin receptors as indicators of disease” (Coulter International Corp., priority 2001, dated 2005):
Read-outs that look alike come from different tables or passages of the source.

How the values were obtained:
THP-1 cells [1] = test: inhibition of the binding of bCRP to THP-1 cells; design: species or system human; settings: for effect on binding of bCRP to THP-1 cells: washed assay, 5 mM EDTA in the primary incubation, PC inclusion or exclusion from the reaction mixture
From the text: Staining proceeded using the previously determined optimal non-washed conditions. […] All other staining conditions were as previously described using bHSA as the control.

[2] = test system: peripheral blood monocytes; test: inhibition of bCRP binding to peripheral blood monocytes; settings: added before staining: 50 μgs CRP, 50 μgs SAP, 10 mM EDTA, 100 μgs PC, human IgG
Method: (§1) Normal peripheral blood and second sample peripheral blood samples were drawn into EDTA containing tubes, unless noted, and stored at room temperature. Blood was stained within 10 hours of collection. […] In addition the removal of the plasma and red cells allowed calcium to be incorporated into the buffer system without subsequent clotting. Lysis was accomplished either by adding a volume of 3 mL of ammonium chloride (Sigma) containing EDTA (Sigma) solution to each 100 μL whole blood for 10 minutes at room temperature or by using the automated T-QPrep Workstation with the ImmunoPrep Reagent System (Coulter Corporation). The ImmunoPrep Reagent System consists of an acid lyse, followed by neutralization and fixation. The lysed blood was centrifuged, the supernatant decanted and the remaining white cell pellet resuspended in 100 μL 0.01M HEPES (Sigma)—0.15M sodium chloride containing 2% Fetal Calf Serum and 2 mM calcium chloride (Sigma), pH 7.4 (HSFC). […] At the end of this time SA-DTAF at a 1:500 dilution (3.6 μg) and 10-20 μL of the appropriate antibody or isotype combination was added for an additional 15 minutes on ice. Cells were then washed with 3 mL HSFC, centrifuged and resuspended to 1 mL in HSFC (0.3% paraformaldehyde was added to ammonium chloride-lysed cells). Stained cells were kept on ice and analyzed within the hour.

[3] = target: CRP receptor (pentraxin-binding moiety) on human monocytes and myelomonocytic cell lines (human); test: inhibition of bCRP (about 1 µg/mL) binding to THP-1 cells, flow cytometry, non-washed assay
PMN = settings: cited from earlier work
lymphocytes = settings: cited from earlier work
monocytes = settings: cited from earlier work
Daudi cells = test: flow cytometric ligand binding assay of bCRP:SA-DTAF on cell lines; design: species or system human; settings: washed assay
Method: (§2) Flow cytometric analysis was performed immediately.

KG-1a cells = test: as above; design: species or system human; settings: washed assay
Method: as §2

Raji cells = test: as above; design: species or system human
Method: as §2

U937 cells = test: as above; design: species or system human; settings: washed assay
Method: as §2

HL-60 cells = test: flow cytometric ligand binding assay of bCRP:SA-DTAF on untreated, DMSO- or PMA-induced cells; design: species or system human
Method: as §2
HL-60 was induced towards either the granulocyte or monocyte pathway with DMSO or phorbol-12-myristate-13-acetate (PMA), respectively. To induce the myelocyte differentiation pathway of HL-60 cells into mature myelocytes or monocytes, a concentration of 1.2% DMSO (Baxter Research, Midvale, Utah) included in the media was added to 2.5×10^5 cells/mL for 6 to 14 days. Monocyte differentiation of HL60 cells was promoted by exposing 5×10^5 cells/mL to 16 nM PMA for 48-72 hours prior to harvest. Untreated cells were always harvested along with the treated cells on the day of testing. A control using the same concentration of PMA dissolution media (DMSO) was also monitored. Viability of cells was determined by trypan blue exclusion and was always greater than 95% except for PMA treated cells that consistently were at 84% due to removal of the adherent cells from the flask via scraping. Prior to staining, the cells were washed with 10 mM HEPES, 150 mM sodium chloride buffer, pH 7.4 containing 0.01% sodium azide, 2% heat-inactivated fetal calf serum and 2 mM calcium chloride (HSFC) and resuspended to 1×10^7 cells/mL.

[4] = test system: peripheral blood monocytes; test: flow cytometric binding of bCRP:SA-DTAF to peripheral blood monocytes; design: species or system human
Method: (§3) Blood was stained within 10 hours of collection.
This concentration was used for all subsequent staining. Freshly drawn blood was evaluated within 30 to 60 minutes of collection and examined with specific markers identifying cell populations to ensure that the receptor binding pattern was similar to that obtained up to 10 hours later.
To ensure that enough monocytes were collected for the analysis stop counts were set to collect at least 1000 monocyte events based on forward and side scatter parameters.
Two individual donors were evaluated each day. The concentration of SA-DTAF was kept constant at a 1:500 dilution in HSFC (3.6 μgs). Peripheral blood monocyte binding was used to determine the optimal concentration. The percent positive values were expressed relative to the 2% cursor placed on the same population stained with the bHSA negative control. The choice of a 2% negative cursor instead of the RFI was made since a subset population was suspected due to the appearance of both a positive and negative stained monocyte population.
Single color, two or three-color staining was used along with monocyte forward and side scatter parameters to enumerate the percentage of positively stained cells. A negative staining control, bHSA:SA-DTAF was always run to establish the negative cursor placement. […] The samples were then evaluated for any differences in result due to gender, ethnic origin or age. […] No significant pattern or correlation was observed between the ages of 24 to 65 years and the binding of CRP to monocytes.

[5] = test system: Granulocytes (CD13+ or CD16+); settings: gated by scatter and CD13+ or CD16+
Method: as §1, with “Cells were then washed with 3 mL HSFC, centrifuged and resuspended to 1 mL in HSFC (0.3% paraformaldehyde was added to ammonium chloride-lysed cells).” left out, “hour. […]” for “hour.”
(§4) A total of six different normal blood samples were drawn, three individual donors on two separate occasions, and evaluated within 30-60 minutes of collection. […]

[6] = test system: T cell populations (CD4+ or CD8+); settings: lymphocyte scatter
Method: as §1, with “Cells were then washed with 3 mL HSFC, centrifuged and resuspended to 1 mL in HSFC (0.3% paraformaldehyde was added to ammonium chloride-lysed cells).” left out, “hour. […]” for “hour.”
as §4

NK cells (CD56+CD16+) = test: three color flow cytometric analysis of bCRP binding in fresh peripheral blood; design: species or system human; settings: lymphocyte scatter
Method: as §3

THP-1 cells [7] = test system: THP-1 cells
Method: (§5) After 30 minutes on ice the exposed cells were either washed with 3 mL cold HFCS, centrifuged at 500×g for 3 minutes and resuspended in 100 μL cold HSFC, or left alone to compare washed and non-washed systems. Freshly diluted SA-DTAF in HSFC, 100 μL (9 μg SA-DTAF), was then added to the tubes and incubation proceeded for another 15 minutes on ice protected from light. The stained cells were washed using 3 mL cold HSFC, centrifuged at 500×g for 3 minutes and resuspended in 1 mL cold HSFC containing 0.3% paraformaldehyde (Sigma). Flow cytometric analysis was performed immediately.
(§6) The labeling reagent, SA-DTAF, was kept at a constant 1:200 dilution.
(§7) Target mean channels previously determined for cell lines stained with mouse IgG1-FITC were used to maintain consistency of values. The same fluorescent settings for FITC emission (LFL1) were used for all cell lines to enable direct comparison of median fluorescent intensities. […] Since cell lines consist of a relatively uniform population of cells, a Relative Fluorescent Index (RFI) comparing the level of fluorescence to the negative control was used as a more accurate representation of binding levels. The median value for the peak fluorescence (MdX) was used in place of the mean fluorescence intensity so that any skewed population shifts would be captured. […]

MOLT-4 cells = settings: washed assay
Method: as §5, §6, §7

[8] = target: CRP receptor (pentraxin-binding moiety) on human monocytes and myelomonocytic cell lines (human); test: 50 µgs purified human SAP added before bCRP staining of peripheral blood monocytes, flow cytometry
[9] = target: isolated human peripheral blood monocytes; settings: requirement for calcium, optimal pH 7.4; read-out: dissociation constant; cited from earlier work
[10] = target: CRP receptor (pentraxin-binding moiety) on human monocytes and myelomonocytic cell lines (human); test: 50 µgs purified CRP added before bCRP staining of peripheral blood monocytes, flow cytometry

For `O=C(O)CN(CCN(CC(=O)O)CC(=O)O)CC(=O)O` [EDTA, reference compound], the “effect on binding of bCRP to THP-1 cells” value (THP-1 cells [1]) was “abolished” and the “inhibition of bCRP binding to peripheral blood monocytes” value [2] was about 98%.

For `C[N+](C)(C)CCOP(=O)(O)O` [PC, phosphorylcholine, reference compound], the “effect on binding of bCRP to THP-1 cells” value (THP-1 cells [1]) was “no significant difference” and the “inhibition of bCRP binding to peripheral blood monocytes” value [2] was about 1%.

With “CRP fragment 174-185: defined fragment of CRP, amino acid residues 174-185 of SEQ ID NO: 2 (Sigma) (IYLGGPFSPNVL; human CRP)” the “inhibition of bCRP binding to THP-1 cells (in words)” value (THP-1 cells [1]; non-washed assay, fragment 174-185 at 100 μgs (˜128 M solution), not repeated, other fragments up to 200 μgs) was “appeared to suppress the reaction”.

For “CRP: purified human C-reactive protein, pentameric pentraxin of 206 amino acid subunits (SEQ ID NO: 2), used unlabeled as inhibitor”, the “point at which 50% of the binding was inhibited (amount)” value (THP-1 cells [1]; non-washed assay, bCRP approximately 1 μg/mL) was 0.72 μgs and the “inhibition of bCRP binding to peripheral blood monocytes” value [2] was about 86%.

Molecule “Limulus CRP (from UniProt P06205 25-242) (ligand)” has an IC50 [3] of 0.0087 nM.

For “aggregated CRP: aggregated CRP of a prior report (Zeller et al., 1986)”, the “percent of cells binding” value (PMN; PMN stimulated with PMA) is given as 93%, the “percent of cells binding” value (PMN; resting PMN) is given as “approximately 36%” and the “percent of cells binding” value (lymphocytes) is given as 8%. The “percent of cells binding” value (monocytes; monocytes) was 70%.

For “bCRP: purified human C-reactive protein labeled with biotin, detected with streptavidin conjugated fluorescein derivative (SA-DTAF)”, the “RFI (Relative Fluorescent Index, bCRP MdX / bHSA MdX)” value (Daudi cells) was “under 0.9”, the “RFI (Relative Fluorescent Index, bCRP MdX / bHSA MdX)” value (KG-1a cells) was 1.2 and the “binding (in words)” value (Raji cells; B cell line Raji) was “No binding”. The “RFI (Relative Fluorescent Index, bCRP MdX / bHSA MdX)” value (Raji cells; washed assay, Raji) was “under 0.9”, the “RFI (Relative Fluorescent Index, bCRP MdX / bHSA MdX)” value (U937 cells) was 1.3 and the RFI (HL-60 cells; CTL: HL-60 control for PMA-treated cells (same dilution of DMSO as PMA solvent)) was 0.7. It also gave an RFI (HL-60 cells; DMSO-treated HL-60) of 1.0, an RFI (HL-60 cells; HL-60 treated with PMA, 48 hours (PMA-48)) of 1.2 and an RFI (HL-60 cells; HL-60 treated with PMA, 72 hours (PMA-72)) of 1.5. The RFI (HL-60 cells; untreated HL60) was 0.6, the binding to cells (HL-60 cells; untreated or DMSO-treated HL-60 cells, washed and no-wash systems) was “negative” and the “binding of bCRP” value ([4]; monocyte subset, dual CD14+CD16+) was “bound very little bCRP”. The “binding of bCRP vs negative bHSA control” value ([4]; monocytes selected by scatter and CD13, CD14 or CD33) was “definite fluorescent signal above that of the negative control”, the “normal range of CRP binding by monocytes” value ([4]; normal donors) was 49-90% and the “percentage of binding (monocytes)” value ([4]; one-step bCRP:SA-DTAF complex) was 84.6%. The “average percent positive values of bCRP binding, monocytes gated by light scatter” value ([4]; six freshly drawn normal donors, 30-60 minutes after collection) was “approximately 70%”, the “percentage of binding (monocytes)” value ([4]; two-step method with wash after primary incubation) was 85.8% and the “binding of bCRP vs negative bHSA control” value [5] was “no binding of bCRP above that of the negative control”. The “binding of bCRP vs negative bHSA control” value [6] was “no binding of bCRP above that of the negative control”, the “binding of bCRP vs negative bHSA control” value (NK cells (CD56+CD16+)) was “no binding of bCRP above that of the negative control” and the RFI (THP-1 cells [7]; THP-1 run at the same time as positive control for the HL-60 induction experiment) was 25.1. For the same molecule, the “RFI (Relative Fluorescent Index, bCRP MdX / bHSA MdX)” value (THP-1 cells [7]; washed assay, THP-1) was 14.5, the “RFI (Relative Fluorescent Index, bCRP MdX / bHSA MdX)” value (MOLT-4 cells) was “under 0.9” and the “average percent of monocytes binding” value (monocytes; other reports) was 67±12%.

In the case of “human SAP: another pentraxin, human Serum Amyloid P, >99% purity”, the “inhibition of bCRP binding to peripheral blood monocytes” value [2] is reported as about 77%.

With “human Serum Amyloid P (from UniProt P02743 20-223) (ligand)” the IC50 [3] was 0.15 nM and the percent inhibition [8] was 77%.

In the case of “radiolabeled CRP: radiolabeled CRP of a prior report (Ballou et al., 1989)”, the Kd [9] is given as about 100 nM.

B1: purified human C-reactive protein (ligand)
chain: QTDMSRKAFVFPKESDTSYVSLKAPLTKPLKAFTVCLHFYTELSSTRGYSIFSYATKRQDNEILIFWSKDIGYSFTVGGSEILFEVPEVTVAPVHICTSWESASGIVEFWVDGKPRVRKSLKKGYTVGAEASIILGQEQDSFGGNFEGSQSLVGDIGNVNMWDFVLSPDEINTIYLGGPFSPNVLNWRALKYEVQGEVFTKPQLWP
Work on B1 yielded a percent inhibition [10] of 86%.
